Test results from the NIST ThermoML archive (doi:10.1021/je700260f).

Details: 283.15 K, Liquid, Vibrating tube method

FC(C(F)(F)F)C(F)(F)F [1,1,1,2,3,3,3-heptafluoropropane]
Details | mass density [kg/m3]
10458 kPa | 1500.1
10488 kPa | 1500.2
10528 kPa | 1500.3
10559 kPa | 1500.4
10588 kPa | 1500.6
10774 kPa | 1501.4
10816 kPa | 1501.5
10838 kPa | 1501.7
10868 kPa | 1501.8
10899 kPa | 1502
10925 kPa | 1502.1
10959 kPa | 1502.2
10981 kPa | 1502.4
11024 kPa | 1502.5
11055 kPa | 1502.6
12114 kPa | 1507
12149 kPa | 1507.1
12177 kPa | 1507.2
12214 kPa | 1507.4
12245 kPa | 1507.6
12281 kPa | 1507.6
12311 kPa | 1507.7
12342 kPa | 1507.9
12373 kPa | 1508
12405 kPa | 1508.2
12437 kPa | 1508.3
12476 kPa | 1508.3
12508 kPa | 1508.5
12544 kPa | 1508.6
12576 kPa | 1508.7
12608 kPa | 1509
12641 kPa | 1509.1
12677 kPa | 1509.2
12709 kPa | 1509.4
12748 kPa | 1509.5
12780 kPa | 1509.7
13258 kPa | 1511.5
13353 kPa | 1512
14612 kPa | 1516.6
14643 kPa | 1516.8
14673 kPa | 1516.9
14713 kPa | 1517.2
14739 kPa | 1517.4
14769 kPa | 1517.4
14799 kPa | 1517.6
14834 kPa | 1517.7
14886 kPa | 1517.8
14927 kPa | 1517.9
14957 kPa | 1518.1
14998 kPa | 1518.3
15045 kPa | 1518.4
15086 kPa | 1518.5
15117 kPa | 1518.8
15153 kPa | 1518.8
15184 kPa | 1518.9
15215 kPa | 1519.2
15256 kPa | 1519.2
15287 kPa | 1519.4
15328 kPa | 1519.4
15365 kPa | 1519.5
15400 kPa | 1519.8
15442 kPa | 1519.9
15474 kPa | 1520
15505 kPa | 1520
15536 kPa | 1520.4
15572 kPa | 1520.5
15607 kPa | 1520.5
15643 kPa | 1520.7
15673 kPa | 1520.8
15714 kPa | 1521
16087 kPa | 1522.4
16114 kPa | 1522.4
16151 kPa | 1522.5
16175 kPa | 1522.7
16606 kPa | 1524.3
16678 kPa | 1524.6
16711 kPa | 1524.5
17447 kPa | 1527.3
17481 kPa | 1527.3
17515 kPa | 1527.4
17545 kPa | 1527.7
17593 kPa | 1527.7
18341 kPa | 1530.5
18418 kPa | 1530.6
18457 kPa | 1530.8
18487 kPa | 1530.8
18526 kPa | 1531.1
18571 kPa | 1531.1
19435 kPa | 1534.2
19479 kPa | 1534.3
19508 kPa | 1534.3
19536 kPa | 1534.5
19574 kPa | 1534.6
19602 kPa | 1534.7
19640 kPa | 1534.9
19673 kPa | 1535
19706 kPa | 1535.1
19739 kPa | 1535.3
19785 kPa | 1535.4
19809 kPa | 1535.4
19854 kPa | 1535.6
19878 kPa | 1535.6
19911 kPa | 1535.8
19949 kPa | 1535.8
19977 kPa | 1536.1
20004 kPa | 1536
20033 kPa | 1536.1
20218 kPa | 1536.8
20257 kPa | 1536.9
20300 kPa | 1537.1
20333 kPa | 1537.1
20396 kPa | 1537.4
20492 kPa | 1537.8
20536 kPa | 1538
20566 kPa | 1538
20605 kPa | 1538.1
20635 kPa | 1538.2
20671 kPa | 1538.4
20709 kPa | 1538.4
20746 kPa | 1538.6
20776 kPa | 1538.6
20810 kPa | 1538.7
20840 kPa | 1538.9
20879 kPa | 1539.1
20918 kPa | 1539.3
20961 kPa | 1539.3
20991 kPa | 1539.4
21029 kPa | 1539.6
21058 kPa | 1539.4
21099 kPa | 1539.7
21129 kPa | 1539.8
21172 kPa | 1539.9
21208 kPa | 1540.1
21242 kPa | 1540.3
21281 kPa | 1540.4
21310 kPa | 1540.4
21350 kPa | 1540.7
21418 kPa | 1540.9
21453 kPa | 1540.9
21503 kPa | 1541.2
21541 kPa | 1541.2
21571 kPa | 1541.3
21610 kPa | 1541.4
21645 kPa | 1541.5
21684 kPa | 1541.6
21709 kPa | 1541.6
21753 kPa | 1541.9
21784 kPa | 1542
21834 kPa | 1542.2
21870 kPa | 1542.3
21901 kPa | 1542.3
21936 kPa | 1542.5
21972 kPa | 1542.7
22011 kPa | 1542.7
22041 kPa | 1542.8
22080 kPa | 1543.1
22115 kPa | 1543.2
22145 kPa | 1543.2
22190 kPa | 1543.1
22231 kPa | 1543.5
22261 kPa | 1543.6
22302 kPa | 1543.7
22349 kPa | 1543.9
22379 kPa | 1543.9
22424 kPa | 1544
22459 kPa | 1544.1
22539 kPa | 1544.5
22579 kPa | 1544.6
22710 kPa | 1545.1
22747 kPa | 1545.1
22782 kPa | 1545.2
22829 kPa | 1545.3
22864 kPa | 1545.6
22974 kPa | 1545.8
23050 kPa | 1545.9
23131 kPa | 1546.2
23178 kPa | 1546.5
23230 kPa | 1546.7
23275 kPa | 1546.8
23311 kPa | 1546.9
23342 kPa | 1546.9
23378 kPa | 1547.1
23418 kPa | 1547.2
23678 kPa | 1548
23750 kPa | 1548.3
23792 kPa | 1548.5
24059 kPa | 1549.2
24099 kPa | 1549.4
24146 kPa | 1549.5
24192 kPa | 1549.5
24228 kPa | 1549.8
24269 kPa | 1549.9
24309 kPa | 1550.1
24608 kPa | 1550.8
24649 kPa | 1551
24695 kPa | 1551.2
24731 kPa | 1551.2
24761 kPa | 1551.4
24807 kPa | 1551.5
24838 kPa | 1551.8
24869 kPa | 1551.8
24920 kPa | 1551.9
24950 kPa | 1552
24990 kPa | 1552.1
25031 kPa | 1552.2
